Assay results from PubChem BioAssay (NCI).
“And” between values parts separate entries of the source, which are not always exact repeats. Equal entries are not always repeated.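 Results reflect a 48-hour exposure of cells in 96-well plates to compound at five concentrations. TGI denotes the concentration required for complete inhibition of growth.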

Columns and labels:
Assay in all cases: NCI-60 cell line screen, 48 h
[1] = test system: ACHN renal
[2] = test system: CAKI-1 renal
[3] = test system: CCRF-CEM leukemia
[4] = test system: HL-60(TB) leukemia
[5] = test system: HOP-62 NSCLC
[6] = test system: HT29 colon
[7] = test system: M14 melanoma
[8] = test system: MALME-3M melanoma
[9] = test system: MDA-MB-435
[10] = test system: OVCAR-3 ovarian
[11] = test system: OVCAR-4 ovarian
[12] = test system: SF-268 CNS
[13] = test system: SK-MEL-2 melanoma
[14] = test system: SK-MEL-28 melanoma
[15] = test system: SK-MEL-5 melanoma
[16] = test system: SK-OV-3 ovarian
[17] = test system: SNB-19 CNS
[18] = test system: U251 CNS
[19] = test system: UACC-257 melanoma
[20] = test system: UACC-62 melanoma

| Compound | TGI [1] | TGI [2] | TGI [3] | TGI [4] | TGI [5] | TGI [6] | TGI [7] | TGI [8] | TGI [9] | TGI [10] | TGI [11] | TGI [12] | TGI [13] [µM] | TGI [14] | TGI [15] | TGI [16] [µM] | TGI [17] | TGI [18] | TGI [19] | TGI [20] |
| --- | --- | --- | --- | --- | --- | --- | --- | --- | --- | --- | --- | --- | --- | --- | --- | --- | --- | --- | --- | --- |
| C=C1C(=O)O[C@@H]2[C@H]1C[C@H](I)[C@@]1(C)CC[C@H](O1)[C@](C)(I)CCCC(C)[C@@H]2O (some centres undefined) | 3.71 µM | 4.19 µM | 1.59 µM | 4.54 µM | 35.2 µM | 4.61 µM | 19.4 µM | 7.33 µM | 11.6 µM | 8.09 µM | 17.6 µM | 27.2 µM | 28.6 | 17.6 µM | > 35.8 µM | 30.7 | 30.5 µM | 20 µM | 20.1 µM | 16.4 µM |
| Cc1cc(OC(=O)Nc2ccc(Cl)cc2)ccc1C(=S)Nc1ccccc1 | > 100 µM | > 100 µM | 58 µM | 53.7 µM | > 100 µM | > 100 µM | > 100 µM | > 100 µM | > 100 µM | > 100 µM | > 100 µM | > 100 µM | > 100 | > 100 µM | > 100 µM | > 100 | > 100 µM | > 100 µM | > 100 µM | > 100 µM |
| N=C(N)c1ccc(N=Nc2c(O)ccc3cc(O)ccc23)cc1 | > 100 µM | > 100 µM | > 100 µM | > 100 µM | > 100 µM | > 100 µM | > 100 µM | > 100 µM | > 100 µM | > 100 µM | > 100 µM | > 100 µM | > 100 | > 100 µM | > 100 µM | > 100 | > 100 µM | > 100 µM | > 100 µM | > 100 µM |
| CCOc1cc2c(cc1O)CC[C@@H]1[C@@H]2CC[C@]2(C)[C@@H](O)CC[C@@H]12 | > 96.1 µM | 52.9 µM | 11.9 µM | 0.352 µM | 15.1 µM | 17.4 µM | 3.16 µM | 50 µM | 0.0761 µM | 0.76 µM | > 100 µM | 48.5 µM | 64.8 | 77.5 µM | 2.48 µM | 77.3 | 7.13 µM | 19.3 µM | – | 19.7 µM |
| C=C(Cl)C(Cl)(CBr)CCC(Br)C(C)(C)Cl (centres undefined) | 2.62 µM and 2.63 µM and 3.13 µM | 2.36 µM and 1.99 µM and 2.1 µM | 45.6 µM and 35 µM and > 100 µM | 3 µM and 3.02 µM and 6.99 µM | 1.84 µM and 2.01 µM and 2.76 µM | 2.19 µM and 1.94 µM and 2.1 µM | 42.2 µM and 33.5 µM and > 74 µM | 31.9 µM and 21 µM and 30.8 µM | 6.56 µM and 4.63 µM and 23.4 µM | 3.09 µM and 1.96 µM and 4.78 µM | 7.93 µM and 4.62 µM and 31.9 µM | 3.13 µM and 1.97 µM and 9.92 µM | 4.17 | 8.93 µM and 3.51 µM and 24.1 µM | 25.4 µM and 25.2 µM and 28.3 µM | 62.7 | 5.54 µM and 4.55 µM and 10.1 µM | 2.08 µM and 0.925 µM and 2.71 µM | 6.07 µM and 3.81 µM and 14.1 µM | 12 µM and 15.2 µM and 2.68 µM |
| N#Cc1c(N)nc2n[nH]c(N)c2c1-c1ccccc1 | 28.9 µM | 19.4 µM | > 100 µM | 71.1 µM | 63.9 µM | 57.7 µM | 37.5 µM | 22 µM | 36.1 µM | 20.5 µM | > 100 µM | 29.2 µM | 12.8 | 77.2 µM | 26.7 µM | 20.4 | > 58.8 µM | 92.2 µM | > 83.6 µM | 8.02 µM |
